Assay: LUNAR study safety: adverse events per CTCAE version 4.03, safety population
Type: in vivo, human
[1] = Grade 3, nervous system disorders
[2] = Grade 3, renal and urinary disorders
[3] = Grade 3, respiratory, thoracic, and mediastinal disorders
[4] = Grade 3, skin and subcutaneous tissue disorders

Method: Safety and treatment data were compiled from all patients who received any study therapy and were analyzed according to the actual treatment received. Analyses were performed using SAS software, version 9.4 (SAS Institute).

CC(=O)O[C@@]12CO[C@@H]1C[C@H](O)[C@@]1(C)C(=O)[C@H](O)C3=C(C)[C@@H](OC(=O)[C@H](O)[C@@H](NC(=O)OC(C)(C)C)c4ccccc4)C[C@@](O)([C@@H](OC(=O)c4ccccc4)[C@H]21)C3(C)C [Docetaxel, docetaxel]
15 (22.1) no. (%): Neutropenia (All grades)
3 (4.4) no. (%): Rash maculopapular (All grades) | Febrile neutropenia (Grade 3) | Leukopenia (Grade 3)
12 (17.6) no. (%): Diarrhea (All grades)
4 (5.9) no. (%): Back pain (All grades) | Hyponatremia (All grades) | Asthenia (Grade 3) | Fatigue (Grade 3) | Pleural effusion [3]
16 (23.5) no. (%): Any adverse event (Grade 4)
10 (14.7) no. (%): Asthenia (All grades) | Constipation (All grades) | Nausea (All grades)
18 (26.5) no. (%): Fatigue (All grades)
6 (8.8) no. (%): Headache (All grades) | Neutrophil count decreased (All grades)
7 (10.3) no. (%): Arthralgia (All grades) | Vomiting (All grades) | White blood cell count decreased (All grades) | Pneumonia (Grade 3)
8 (11.8) no. (%): Hypoalbuminemia (All grades) | Hypokalemia (All grades) | Pleural effusion (All grades) | Anemia (Grade 3)
0 no. (%): Dermatitis (All grades) | Pruritus (All grades) | Skin irritation (All grades) | Acute myocardial infarction (Grade 3) | Adenocarcinoma of colon (Grade 3) | Arthralgia (Grade 3) | Ascites (Grade 3) | Aspergillus infection (Grade 3) | Autoimmune colitis (Grade 3) | Back pain (Grade 3) | Blood bilirubin increased (Grade 3) | Bronchiolitis (Grade 3) | Bronchitis (Grade 3) | C-reactive protein increased (Grade 3) | Cardiac failure congestive (Grade 3) | Cardiac tamponade (Grade 3) | Cardiac ventricular thrombosis (Grade 3) | Cataract (Grade 3) | Chest pain (Grade 3) | Cholecystitis (Grade 3) | Cholelithiasis (Grade 3) | Clostridium bacteremia (Grade 3) | Coronary artery disease (Grade 3) | Decreased appetite (Grade 3) | Diarrhea (Grade 3) | Diverticulitis (Grade 3) | Encephalitis (Grade 3) | Esophagitis (Grade 3) | Euthanasia (Grade 3) | Femoral neck fracture (Grade 3) | Gastroenteritis salmonella (Grade 3) | General physical health deterioration (Grade 3) | Hematochezia (Grade 3) | Hepatic enzyme increased (Grade 3) | Hip fracture (Grade 3) | Hypercalcemia (Grade 3) | Hyperkalaemia (Grade 3) | Hypertriglyceridaemia (Grade 3) | Hypocalcaemia (Grade 3) | Hypokalemia (Grade 3) | Infection (Grade 3) | Intestinal perforation (Grade 3) | Large intestine perforation (Grade 3) | Localized oedema (Grade 3) | Lung abscess (Grade 3) | Lymphocyte count decreased (Grade 3) | Lymphopenia (Grade 3) | Malnutrition (Grade 3) | Metastases to bone (Grade 3) | Metastases to meninges (Grade 3) | Metastases to skin (Grade 3) | Mouth ulceration (Grade 3) | Multiple organ dysfunction syndrome (Grade 3) | Myalgia (Grade 3) | Nausea (Grade 3) | Neuropathy peripheral (Grade 3) | Oral candidiasis (Grade 3) | Pancreatitis (Grade 3) | Pericardial effusion (Grade 3) | Platelet count decreased (Grade 3) | Pneumonia pseudomonal (Grade 3) | Pneumonia staphylococcal (Grade 3) | Pyelonephritis (Grade 3) | Pyrexia (Grade 3) | Respiratory tract infection (Grade 3) | Septic shock (Grade 3) | Skin infection (Grade 3) | Stomatitis (Grade 3) | Subileus (Grade 3) | Thrombocytopenia (Grade 3) | Thyroiditis subacute (Grade 3) | Tumor pain (Grade 3) | Upper respiratory tract infection (Grade 3) | Urinary tract infection (Grade 3) | Urosepsis (Grade 3) | Vomiting (Grade 3) | Weight decreased (Grade 3) | Brain oedema [1] | Cauda equina syndrome [1] | Dysarthria [1] | Embolic stroke [1] | Motor dysfunction [1] | Nervous system disorder [1] | Neurotoxicity [1] | Quadriparesis [1] | Seizure [1] | Vocal cord paralysis [1] | Anxiety (Grade 3, psychiatric disorders) | Confusional state (Grade 3, psychiatric disorders) | Mental status changes (Grade 3, psychiatric disorders) | Acute kidney injury [2] | Urinary retention [2] | Acute respiratory failure [3] | Bronchial obstruction [3] | Bronchopleural fistula [3] | Cough [3] | Esophago-bronchial fistula [3] | Interstitial lung disease [3] | Pneumonia aspiration [3] | Pulmonary hemorrhage [3] | Respiratory failure [3] | Dermatitis exfoliative [4] | Pruritus [4] | Rash [4] | Rash erythematous [4] | Rash maculopapular [4] | Skin erosion [4] | Skin reaction [4] | Skin toxicity [4] | Deep vein thrombosis (Grade 3, vascular disorders) | Embolism (Grade 3, vascular disorders) | Hypertension (Grade 3, vascular disorders) | Jugular vein thrombosis (Grade 3, vascular disorders) | Peripheral arterial occlusive disease (Grade 3, vascular disorders) | Vena cava embolism (Grade 3, vascular disorders) | Acute myocardial infarction (Grade 4) | Adenocarcinoma of colon (Grade 4) | Alanine aminotransferase increased (Grade 4) | Anemia (Grade 4) | Anemia macrocytic (Grade 4) | Arthralgia (Grade 4) | Ascites (Grade 4) | Aspergillus infection (Grade 4) | Asthenia (Grade 4) | Atrial tachycardia (Grade 4) | Autoimmune colitis (Grade 4) | Back pain (Grade 4) | Blood bilirubin increased (Grade 4) | Bone pain (Grade 4) | Bronchiolitis (Grade 4) | Bronchitis (Grade 4) | C-reactive protein increased (Grade 4) | Cancer pain (Grade 4) | Cardiac failure congestive (Grade 4) | Cardiac tamponade (Grade 4) | Cardiac ventricular thrombosis (Grade 4) | Cataract (Grade 4) | Chest pain (Grade 4) | Cholangitis (Grade 4) | Cholecystitis (Grade 4) | Cholelithiasis (Grade 4) | Clostridium bacteremia (Grade 4) | Coronary artery disease (Grade 4) | Decreased appetite (Grade 4) | Dehydration (Grade 4) | Diarrhea (Grade 4) | Diverticulitis (Grade 4) | Drug hypersensitivity (Grade 4) | Encephalitis (Grade 4) | Esophagitis (Grade 4) | Euthanasia (Grade 4) | Fatigue (Grade 4) | Febrile neutropenia (Grade 4) | Femoral neck fracture (Grade 4) | Forced expiratory volume decreased (Grade 4) | Gastroenteritis norovirus (Grade 4) | Gastroenteritis salmonella (Grade 4) | General physical health deterioration (Grade 4) | Hematochezia (Grade 4) | Hepatic enzyme increased (Grade 4) | Hip fracture (Grade 4) | Hypercalcemia (Grade 4) | Hyperglycemia (Grade 4) | Hyperkalaemia (Grade 4) | Hypertriglyceridaemia (Grade 4) | Hypoalbuminemia (Grade 4) | Hypocalcaemia (Grade 4) | Hypokalemia (Grade 4) | Hyponatremia (Grade 4) | Ileus (Grade 4) | Infection (Grade 4) | Intestinal dilatation (Grade 4) | Intestinal hemorrhage (Grade 4) | Intestinal perforation (Grade 4) | Large intestine perforation (Grade 4) | Leukopenia (Grade 4) | Liver disorder (Grade 4) | Localized oedema (Grade 4) | Lung abscess (Grade 4) | Lymphocyte count decreased (Grade 4) | Lymphopenia (Grade 4) | Malignant ascites (Grade 4) | Malignant pleural effusion (Grade 4) | Malnutrition (Grade 4)
2 (2.9) no. (%): Rash (All grades) | Hyponatremia (Grade 3) | Metastases to central nervous system (Grade 3) | Neutrophil count decreased (Grade 3) | Oedema peripheral (Grade 3) | Peripheral sensorimotor neuropathy [1] | Syncope [1] | Atelectasis [3] | Dyspnoea [3] | Hypoxia [3]
19 (27.9) no. (%): Anemia (All grades) | Dyspnea (All grades)
1 (1.5) no. (%): Dysphagia (All grades) | Upper respiratory tract infection (All grades) | Alanine aminotransferase increased (Grade 3) | Anemia macrocytic (Grade 3) | Atrial tachycardia (Grade 3) | Bone pain (Grade 3) | Cancer pain (Grade 3) | Cholangitis (Grade 3) | Dehydration (Grade 3) | Drug hypersensitivity (Grade 3) | Forced expiratory volume decreased (Grade 3) | Gastroenteritis norovirus (Grade 3) | Hyperglycemia (Grade 3) | Hypoalbuminemia (Grade 3) | Ileus (Grade 3) | Intestinal dilatation (Grade 3) | Intestinal hemorrhage (Grade 3) | Liver disorder (Grade 3) | Malignant ascites (Grade 3) | Malignant pleural effusion (Grade 3) | Mucosal inflammation (Grade 3) | Muscular weakness (Grade 3) | Myocardial infarction (Grade 3) | Neck pain (Grade 3) | Neutropenia (Grade 3) | Non-cardiac chest pain (Grade 3) | Pancreatic failure (Grade 3) | Peripheral sensory (Grade 3) | Pyopneumothorax (Grade 3) | Refeeding syndrome (Grade 3) | Right ventricular failure (Grade 3) | Sepsis (Grade 3) | Hemiparesis [1] | Neurologic neglect syndrome [1] | Chronic obstructive pulmonary disease [3] | Hemoptysis [3] | Pneumonitis [3] | Pulmonary embolism [3] | Alopecia [4]
11 (16.2) no. (%): Cough (All grades) | Decreased appetite (All grades) | Pneumonia (All grades)
23 (33.8) no. (%): Any adverse event (Grade 3)
9 (13.2) no. (%): Oedema peripheral (All grades) | Pyrexia (All grades)
61 (89.7) no. (%): Any adverse event (All grades)
5 (7.4) no. (%): White blood cell count decreased (Grade 3)
22 (32.4) no. (%): Alopecia (All grades)

Source: patent US20240399142A1, “Methods Of Using Alternating Electric Fields And Checkpoint Inhibitors” (NOVOCURE GMBH, priority 2023, published 2024)
